{
  "source": "patent US20230190870A1",
  "about": "“Method for Treating Lysosomal Storage Diseases with Histatin Peptides” (THE BOARD OF TRUSTEES OF THE UNIVERSITY OF ILLINOIS, priority 2020, published 2023)",
  "key": {"[1]": {"test_system": "HCE cells", "experiment": "Immunofluorescence imaging of internalization and localization", "format": "cell-based, human", "protocol": "Immunofluorescence Imaging. HCE cells were seeded on glass coverslips (Fisher Scientific Co.; Pittsburgh, Pa.) within a 6-well plate at 3×10^5 (cells/well) seeding density. […] HCE cells were then fixed in 3.7% paraformaldehyde, permeabilized with phosphate-buffered saline (PBS) containing 0.2% TRITON™ X-100 for 5 minutes, and washed three times for 5 minutes each time in PBS. For blocking, cells were and incubated at room temperature for 30 minutes with 5% bovine serum albumin (BSA) and 5% normal goat serum in PBS. For the Endoplasmic Reticulum (ER) staining, a Cytopainter ER staining kit (Abcam; Cambridge, Mass.) was used, following the manufacturer's instructions. After washing with 1×Assay buffer, cells were incubated with Green Detection Reagent to cover the monolayer of cells. For the detection of Hst1 and TMEM97, mouse anti-Hst1 antibody (Abcam; Cambridge, Mass.), rabbit primary antibody against Hst1 (Mybiosource; San Diego, Calif.), and rabbit anti-TMEM97 antibody (Novus Bio.; Littleton, Colo.) were used. Cells were incubated overnight at 4° C. with primary antibodies, washed three times for 5 minutes each time in PBS before incubation with secondary antibodies for 30 minutes. Cells were then counterstained with 1 μg/mL 4′,6-diamidino-2-phenylindole (DAPI) solution in PBS for 3 minutes, then washed three times with PBS containing 0.05% TRITON™ X-100 for 5 minutes each time, twice with PBS for 5 minutes each time, and once with distilled water for 10 seconds. The cells were mounted in Fluoro gel with Tris buffer (Electron Microscopy Sciences; Hatfield, Pa.) and observed under a confocal microscope (Zeiss LSM 710 Confocal Microscope; Oberkochen, Germany) using a 40×objective. Fluorescent dye sold under the tradename ALEXA FLUOR® 488 NHS Ester (Molecular Probes; Carlsbad, Calif.) was used for making Alexa-488 coupled synthetic Hst1.\nTransfection/Knock-Down of TMEM97. Sub-confluent monolayers of HCE cells in grown in 35-mm six-well plates were transfected with reaction mixtures composed of 100 pmol of small interfering RNA (siRNA) to TMEM97 (Santa Cruz Biotechnology; Dallas, Tex.) for 48 hours and 5 μL of transfection reagent sold under the tradename LIPOFECTAMINE® 2000 (Invitrogen; Carlsbad, Calif.) in culture medium sold under the tradename OPTI-MEMO media (Gibco Life Technologies; Grand Island, N.Y.). Complexes were incubated for 20 minutes at 24° C. and then added to cells at 37° C. Incubation was continued for 24 to 48 hours at 37° C. in 5% CO2. Knock-down (KD) of TMEM97 was confirmed by western blot analysis using a rabbit anti-TMEM97 antibody (Novus Bio.; Littleton, Colo.). […]"}, "[2]": {"target": "TMEM97 (Homo sapiens, UniProt Q5BJF2)", "sequence (Q5BJF2 whole entry)": "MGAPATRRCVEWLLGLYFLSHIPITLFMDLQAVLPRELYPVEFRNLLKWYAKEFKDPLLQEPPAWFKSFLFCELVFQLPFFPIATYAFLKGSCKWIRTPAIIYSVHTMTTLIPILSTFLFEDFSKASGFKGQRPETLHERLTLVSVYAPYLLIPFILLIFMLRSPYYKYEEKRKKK", "experiment": "Co-immunoprecipitation / western blot in HCE cells", "format": "binding", "parameters": "endogenous in cells; host or cells: HCE cells", "settings": "20 μM Hst1 for 6 hours, IP TMEM97 antibody", "protocol": "Immunoprecipitation/Western Blot Analysis. The day before, HCE cells were plated at the concentration of 5×10^6 cells/well in a 100 mm dish and were treated with 20 μM of Hst1 for 6 hours. Cells were harvested with lysis buffer (1% NP40, 137 mM sodium chloride, 20 mM Tris [pH 8.0], and 10% glycerol) and the lysates were incubated with 5 μL of a validated rabbit polyclonal anti-TMEM97 antibody (Novus Bio.; Littleton, Colo.) overnight at 4° C. The lysates were incubated with 30 μL of a suspension of protein A/G (Santa Cruz Biotechnology; Dallas, Tex.) for 2 hours at 4° C. with gentle shaking. After centrifugation for 5 minutes, pellets were washed three times and resuspended in 50 μL of 2×NUPAGE® LDS sample buffer (Invitrogen; Carlsbad, Calif.) and boiled for 10 minutes.\nFor detecting Hst1 bound to TMEM97 protein, the lysates were subjected to electrophoresis on 12% NUPAGE® Bis-Tris gels (Invitrogen; Carlsbad, Calif.), followed by transfer to nitrocellulose membranes (Amersham Protran, GE Healthcare; Pittsburgh, Pa.). Membranes were then blocked with Tris-buffered saline containing 3% nonfat dry milk for 1 hour and incubated with rabbit primary antibody against Hst1 (Mybiosource; San Diego, Calif.) (1:1000) overnight at 4° C. […]"}},
  "note": "Square brackets hold non-standard residues; d marks the D form. Peptide text beside a SMILES is read from it. pS = N[C@@H](COP(=O)(O)O)C(=O)O",
  "data": [
    {"smiles": "CC(C)C[C@H](NC(=O)[C@H](Cc1ccc(O)cc1)NC(=O)[C@H](CC(N)=O)NC(=O)[C@H](CO)NC(=O)CNC(=O)[C@H](Cc1ccc(O)cc1)NC(=O)[C@H](CC(=O)O)NC(=O)CNC(=O)[C@H](Cc1ccc(O)cc1)NC(=O)[C@H](Cc1ccccc1)NC(=O)[C@@H]1CCCN1C(=O)[C@H](Cc1ccccc1)NC(=O)[C@H](CCC(=O)O)NC(=O)[C@H](CCCNC(=N)N)NC(=O)[C@H](Cc1c[nH]cn1)NC(=O)[C@H](CO)NC(=O)[C@H](Cc1c[nH]cn1)NC(=O)[C@H](Cc1c[nH]cn1)NC(=O)[C@H](CCCCN)NC(=O)[C@H](CCC(=O)O)NC(=O)[C@H](Cc1c[nH]cn1)NC(=O)[C@H](Cc1ccccc1)NC(=O)[C@H](CCCCN)NC(=O)[C@H](CCCNC(=N)N)NC(=O)[C@H](CCCNC(=N)N)NC(=O)[C@H](Cc1ccc(O)cc1)NC(=O)CNC(=O)[C@H](Cc1c[nH]cn1)NC(=O)[C@H](Cc1c[nH]cn1)NC(=O)[C@H](CCCNC(=N)N)NC(=O)[C@H](CCCCN)NC(=O)[C@H](CCC(=O)O)NC(=O)[C@H](Cc1c[nH]cn1)NC(=O)[C@H](COP(=O)(O)O)NC(=O)[C@@H](N)CC(=O)O)C(=O)N[C@@H](Cc1ccc(O)cc1)C(=O)N[C@@H](CC(=O)O)C(=O)N[C@@H](CC(N)=O)C(=O)O", "note": "[Hst1] (H-D[pS]HEKRHHGYRRKFHEKHHSHREFPFYGDYGSNYLYDN-OH; N-terminus and C-terminus assumed)", "values": [
      {"measurement": "co-immunolocalization with TMEM97", "setting": "[1]; exogenously applied Hst1", "value": "significant overlap"},
      {"measurement": "co-localization with endoplasmic reticulum stain", "setting": "[1]; exogenously applied Hst1", "value": "good co-localization"},
      {"measurement": "internalization and/or localization in TMEM97 KD cells", "setting": "[1]; siRNA knock-down of TMEM97", "value": "significantly disrupted internalization and/or localization"},
      {"measurement": "co-precipitation with TMEM97", "setting": "[2]", "value": "co-precipitated with TMEM97"}
    ]}
  ]
}
